Data reported in PubChem BioAssay AID1919017 (Molecular Pharmacology Branch, DTP, NCI, 2023).
Several values for one entry are separate records, joined by “and”; a condition that tells them apart may be missing. Identical values can stand only once.

System: SW1271 complex spheroids with HUVEC/MSC, growth, % test/control
Experiment: Anticancer human tumor SW1271 cell line growth inhibition [AhR];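 note: spheroids exposed to agents for 7 days before readout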
Conditions: for viability, T/C: stronger effect = lower value
In short: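 Complex tumor spheroids co-cultured with HUVEC and human MSC stroma; AhR antagonists tested in combination with standard-of-care and investigational agents. Top concentration at or near clinical Cmax (else 10 microM), half-log dilutions; growth expressed as percent test/control.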

[1] = curve of first compound, second compound 0.1 µM
[2] = curve of first compound, second compound 0.316 µM
[3] = curve of first compound, second compound 1 µM
[4] = curve of first compound, second compound 3.16 µM
[5] = curve of first compound, second compound 10 µM
[6] = second compound 0.1 µM, first compound 0.00949 µM
[7] = second compound 0.1 µM, first compound 0.03 µM
[8] = second compound 0.1 µM, first compound 0.0949 µM
[9] = second compound 0.1 µM, first compound 0.3 µM
[10] = second compound 0.1 µM, first compound 0.949 µM
[11] = second compound 0.1 µM, first compound 3 µM
[12] = second compound 0.316 µM, first compound 0.00949 µM
[13] = second compound 0.316 µM, first compound 0.03 µM
[14] = second compound 0.316 µM, first compound 0.0949 µM
[15] = second compound 0.316 µM, first compound 0.3 µM
[16] = second compound 0.316 µM, first compound 0.949 µM
[17] = second compound 0.316 µM, first compound 3 µM
[18] = second compound 1 µM, first compound 0.00949 µM
[19] = second compound 1 µM, first compound 0.03 µM
[20] = second compound 1 µM, first compound 0.0949 µM
[21] = second compound 1 µM, first compound 0.3 µM
[22] = second compound 1 µM, first compound 0.949 µM
[23] = second compound 1 µM, first compound 3 µM
[24] = second compound 3.16 µM, first compound 0.00949 µM
[25] = second compound 3.16 µM, first compound 0.03 µM
[26] = second compound 3.16 µM, first compound 0.0949 µM
[27] = second compound 3.16 µM, first compound 0.3 µM
[28] = second compound 3.16 µM, first compound 0.949 µM
[29] = second compound 3.16 µM, first compound 3 µM
[30] = second compound 10 µM, first compound 0.00949 µM
[31] = second compound 10 µM, first compound 0.03 µM
[32] = second compound 10 µM, first compound 0.0949 µM
[33] = second compound 10 µM, first compound 0.3 µM
[34] = second compound 10 µM, first compound 0.949 µM
[35] = second compound 10 µM, first compound 3 µM

Compound | IC50 [1] [µM] | IC50 [2] [µM] | IC50 [3] [µM] | IC50 [4] [µM] | IC50 [5] [µM] | viability, T/C [6] [%] | viability, T/C [7] [%] | viability, T/C [8] [%] | viability, T/C [9] [%] | viability, T/C [12] [%] | viability, T/C [13] [%] | viability, T/C [14] [%] | viability, T/C [15] [%] | viability, T/C [18] [%] | viability, T/C [19] [%] | viability, T/C [20] [%] | viability, T/C [21] [%] | viability, T/C [24] [%] | viability, T/C [25] [%] | viability, T/C [26] [%] | other results
O=C(C=Cn1cnc(-c2cc(C(F)(F)F)cc(C(F)(F)F)c2)n1)NNc1cnccn1 + CC(CO)NC(=O)c1cc(-c2ccc(Cl)cc2)nn(-c2cnn(C)c2)c1=O | 0.996 | 0.911 | 0.625 | 0.45 | 0.756 | 108 | 76.7 | 93.1 | 70.5 | 74.4 | 79.2 | 72.3 | 63.7 | 73.9 | 86.7 | 70.8 | 60.4 | 85.2 | 75.3 | 87.3 | viability, T/C [10]: 45.6%; viability, T/C [11]: 34.3%; viability, T/C [16]: 50%; viability, T/C [17]: 31.7%; viability, T/C [22]: 44%; viability, T/C [23]: 40.5%; viability, T/C [27]: 57.4%; viability, T/C [28]: 34.8%; viability, T/C [29]: 37.8%; viability, T/C [30]: 79%; viability, T/C [31]: 71.7%; viability, T/C [32]: 68.8%; viability, T/C [33]: 92.2%; viability, T/C [34]: 43.2%; viability, T/C [35]: 27%
Cn1ncnc1C1c2n[nH]c(=O)c3cc(F)cc(c23)NC1c1ccc(F)cc1 (configuration not stated) |  |  |  |  |  |  |  |  |  |  |  |  |  |  |  |  |  |  |  |  | viability, T/C (compound 0.000316 µM): 114% and 102% and 95.2%; viability, T/C (compound 0.001 µM): 97.2% and 109% and 100%; viability, T/C (compound 0.00316 µM): 101% and 95.9% and 94%; viability, T/C (compound 0.01 µM): 106% and 105% (2×); viability, T/C (compound 0.0316 µM): 89.5% and 112% and 96.6%; viability, T/C (compound 0.1 µM): 88.7% and 93.8% and 83.6%; IC50 (curve of compound): > 0.1 µM
CCc1c2c(nc3ccc(O)cc13)-c1cc3c(c(=O)n1C2)COC(=O)[C@]3(O)CC + Cc1ccccc1N=Nc1ccc(NC(=O)c2ccnn2C)c(C)c1 | 0.3 | 0.0671 | 0.21 | > 0.3 | 0.0788 | 64 | 56.2 | 47.7 | 54.7 | 72.4 | 54.2 | 46.4 | 48.7 | 72.5 | 55 | 59.6 | 46.5 | 77.1 | 63.6 | 54.3 | viability, T/C (second compound 0.1 µM, first compound 0.000949 µM): 72.5%; viability, T/C (second compound 0.1 µM, first compound 0.003 µM): 99%; viability, T/C (second compound 0.316 µM, first compound 0.000949 µM): 90.9%; viability, T/C (second compound 0.316 µM, first compound 0.003 µM): 85.4%; viability, T/C (second compound 1 µM, first compound 0.000949 µM): 81.7%; viability, T/C (second compound 1 µM, first compound 0.003 µM): 74.3%; viability, T/C (second compound 3.16 µM, first compound 0.000949 µM): 79.7%; viability, T/C (second compound 3.16 µM, first compound 0.003 µM): 85.6%; viability, T/C [27]: 52.7%; viability, T/C (second compound 10 µM, first compound 0.000949 µM): 82%; viability, T/C (second compound 10 µM, first compound 0.003 µM): 82.7%; viability, T/C [30]: 83.9%; viability, T/C [31]: 59.6%; viability, T/C [32]: 47.5%; viability, T/C [33]: 48.9%
CCN(c1cc(-c2ccc(CN3CCOCC3)cc2)cc(C(=O)NCc2c(C)cc(C)[nH]c2=O)c1C)C1CCOCC1 + Cc1ccccc1N=Nc1ccc(NC(=O)c2ccnn2C)c(C)c1 | > 3 | > 3 | > 3 | > 3 | > 3 | 115 | 111 | 117 | 107 | 115 | 118 | 106 | 123 | 117 | 110 | 122 | 122 | 99.3 | 114 | 102 | viability, T/C [10]: 118%; viability, T/C [11]: 110%; viability, T/C [16]: 105%; viability, T/C [17]: 107%; viability, T/C [22]: 98%; viability, T/C [23]: 88%; viability, T/C [27]: 148%; viability, T/C [28]: 120%; viability, T/C [29]: 108%; viability, T/C [30]: 96.5%; viability, T/C [31]: 103%; viability, T/C [32]: 91.7%; viability, T/C [33]: 111%; viability, T/C [34]: 103%; viability, T/C [35]: 118%
